Key:
Type in all cases: cell-based
DU4475 = assay: CellTiter-Glo cytotoxicity, cancer cell line panel / breast cancer study; conditions: Homo sapiens, DU-4475; DU4475, Breast carcinoma
Method: (§1) The objective of this study is to investigate potential cell killing effect of Compounds 1-15 on 3 cancer cell lines. 50% inhibition concentration (IC50) was determined for these compounds in various cancer cell lines using CellTiter-Glo™ luminescent cell viability assay at different compound concentrations. Each cell line (e.g., NCI-H209; NCI-H69; and SW1271) was treated with Compounds 1-15 and culture medium contains 0.2% [v/v] DMSO vehicle control. All the cells were cultured in the media supplemented with 10-20% fetal bovine serum at 37° C., 5% CO2 and 95% humidity.
(§2) The objective of this study is to investigate the effect of Compound 1 on cytotoxicity against 61 different types of cancer cell lines. IC50 were values were obtained using CellTiter-Glo™ as described above. Each cell line shown in Table 3 was treated with Compound 1, a standard chemotherapy drug, cisplatin, as reference control and culture medium contains 0.2% [v/v] DMSO vehicle control. All cancer cell lines were cultured in media supplemented with 10-20% fetal bovine serum at 37° C., 5% CO2 and 95% humidity.
(§3) The objective of this study is to investigate the effect of Compound 1 on cell viability of various types of breast cancer. Four different breast cancer cell lines were employed in the study. Each cell line shown in Table 5 was treated with Compound 1 and standard of care (cisplatin) and culture medium contains 0.2% [v/v] DMSO vehicle control and IC50 values were obtained as described above. The raw data values from the CellTiter-Glo™ cell viability assay expressed in relative luminescence units were normalized to the vehicle for each individual plate, and any reduction in luminescence indicated a decrease in viability (%). The data was analyzed in GraphPad PRISM using a non-linear sigmoidal plot with variable slope (asymmetric four-point linear regression), and an IC50 value for each compound was generated. The experiment tested pentamidine, compound 1, and standard-of-care control Cisplatin in full growth media for 8 days. Cells were initially treated with the test compounds on Day 0, and the cells were then replenished with fresh compound dilutions on Day 3. Pentamidine, Compound 1, and cisplatin were tested at 9 concentration points; 100, 33.33, 11.11, 3.70, 1.23, 0.41, 0.14, 0.05, and 0.02 μM (final DMSO concentration=0.5%).

HCC1954 = assay: as above; conditions: Homo sapiens; HCC1954, Ductal breast carcinoma
Method: as §1, §2, §3

MCF7 = assay: as above; conditions: Homo sapiens; MCF7, Invasive ductal carcinoma
Method: as §1, §2, §3

ZR-75-1 = assay: as above; conditions: Homo sapiens; ZR-75-1, Invasive ductal carcinoma
Method: as §1, §2, §3

HCCLM3 = assay: CellTiter-Glo cell viability, liver cell lines, 8 days; conditions: Homo sapiens, 192 h; HCCLM3, 8 days
Method: (§4) The objective of this study is to investigate the effect of Compound 1 on cell viability of various types of liver cancer. Ten (10) different liver cancer cell lines were employed in the study. Each liver cell line shown in Table 4 was treated with Compound 1, pentamidine, as reference control, a standard of care (cisplatin) and culture medium contains 0.2% [v/v] DMSO vehicle control and IC50 values were obtained as described above. The raw data values from the CellTiter-Glo™ cell viability assay expressed in relative luminescence units were normalized to the vehicle for each individual plate, and any reduction in luminescence indicated a decrease in viability (%). The data was analyzed in GraphPad PRISM using a non-linear sigmoidal plot with variable slope (asymmetric four-point linear regression), and an IC50 value for each compound was generated. The experiment tested pentamidine, compound 1, and standard-of-care control Cisplatin in full growth media for 8 days. Cells were initially treated with the test compounds on Day 0, and the cells were then replenished with fresh compound dilutions on Day 3. Pentamidine, Compound 1, and cisplatin were tested at 9 concentration points; 100, 33.33, 11.11, 3.70, 1.23, 0.41, 0.14, 0.05, and 0.02 μM (final DMSO concentration=0.5%). In particular, the IC50 values of pentamidine and Compound 1 were 0.8 and 0.6 μM in Hep3B-luc, respectively.

HEP3B2.7-1 = assay: as above; conditions: HEP3B2.7-1, Table 4
Method: as §4

HUH1 = assay: as above; conditions: Homo sapiens, HuH-1, 192 h; HUH1, 8 days
Method: as §4

HUH7 = assay: as above; conditions: Homo sapiens, Huh-7, 192 h; HUH7, 8 days
Method: as §4

Hep3B = assay: as above; conditions: Homo sapiens, 192 h
Method: as §4

HepG2 = assay: as above; conditions: Homo sapiens, 192 h; HepG2, 8 days
Method: as §4

MHCC97H = assay: as above; conditions: Homo sapiens, 192 h
Method: as §4

SK-HEP-1 = assay: as above; conditions: Homo sapiens
Method: as §4

N=C(N)c1ccc(OCCCCCOc2ccc(C(=N)N)nc2)cc1 [Compound 1, 5-(5-(4-carbamimidoylphenoxy)pentyloxy)picolinimidamide]
IC50 (DU4475): 240 nM | IC50 (HCC1954): 2710 nM | IC50 (MCF7): 930 nM | IC50 (ZR-75-1): 1320 nM | IC50 (HCCLM3): 9650 nM | IC50 (HEP3B2.7-1): 320 nM | IC50 (HUH1): 2950 nM | IC50 (HUH7): 530 nM | IC50 (Hep3B): 180 nM | IC50 (HepG2): 310 nM | IC50 (MHCC97H): 5320 nM | IC50 (SK-HEP-1; SK-HEP1, SK-HEP-1, first listing in Table 4): 1400 nM | IC50 (SK-HEP-1; SK-HEP1, SK-HEP-1, second listing in Table 4): 630 nM
